This note sets out measurements from DBAASP.

Among the test systems are Enterococcus faecalis VR; Enterococcus faecalis; Enterococcus faecium VR; Enterococcus faecium; Escherichia coli JM109; Staphylococcus aureus MR; Staphylococcus aureus; Klebsiella pneumoniae M6; Staphylococcus aureus 15.
Holding throughout (assay): ≥ marks a high value that may be exact or a test limit, other limits are often not marked, values filed in µg/mL are converted to µM
In assay [1] the test system is Bacillus subtilis KCTC 3068.
Assay [2] concerns Escherichia coli KCTC 1682.
The test system of assay [3] is Pseudomonas aeruginosa KCTC 1637.
For assay [4], the system named is Salmonella typhimurium KCTC 1926.
The subject of assay [5] is Staphylococcus aureus ATCC 6538P.
Assay [6] concerns Staphylococcus aureus KCTC 1621.
The test system of assay [7] is Staphylococcus epidermidis KCTC 1917.
Assay [8] relates to Escherichia coli K-12 594.
Assay [9] has as its system Staphylococcus aureus SR1550.
The test system of assay [10] is Acinetobacter baumannii ATCC 17987.
The subject of assay [11] is Acinetobacter baumannii AYE.
In assay [12] the test system is Enterococcus faecalis NCTC 12201.
Assay [13] deals with Enterococcus faecalis NCTC 12204.
Assay [14] has as its system Enterococcus faecalis NCTC 775.
In assay [15] the test system is Escherichia coli NCTC 12923.
In assay [16] the test system is Klebsiella pneumoniae NCTC 13368.
For assay [17], the system named is Pseudomonas aeruginosa NCTC 13437.
The subject of assay [18] is Pseudomonas aeruginosa PAO1.
Assay [19] relates to Pseudomonas syringae pv. tomato.
The test system of assay [20] is Staphylococcus aureus NCTC 9144.
Assay [21] relates to Xanthomonas axonopodis pv. phaseoli.
For assay [22], the system named is Bacillus subtilis ATCC 6633.
Assay [23] has as its system Escherichia coli ATCC 10536.
Assay [24] concerns Escherichia coli DH5alpha.
In assay [25] the test system is Staphylococcus aureus ATCC 9144.

Usually MIC stands for the smallest concentration in the dilution series that meets the test's criterion for growth inhibition. A low value points to greater potency.

≈ marks a conversion by molar mass, not a printed value.

As to `CC[C@H](C)[C@H](NC(=O)[C@H](C)NC(=O)[C@H](CC(C)C)NC(=O)[C@H](CS)NC(=O)[C@H](Cc1cnc[nH]1)NC(=O)[C@H](C)NC(=O)[C@H](C)N)C(=O)NCC(=O)N[C@@H](CCCN=C(N)N)C(=O)N[C@@H](CCCN=C(N)N)C(N)=O` [AAHCLAIGRR], the MIC in assay [1] came to 7.5 µM; against Enterococcus faecalis VR it was 30 µM; in the assay with Enterococcus faecalis, 15 µM; with Enterococcus faecium VR it was 15 µM; with Enterococcus faecium, 15 µM; in the assay on Escherichia coli JM109, 15 µM. Also, the minimum inhibitory concentration (MIC) in assay [2] stood at 15 µM; in [3], 15 µM; in assay [4], 15 µM; in assay [5], 4.68 µM; in assay [6] it was 7.5 µM; against Staphylococcus aureus MR, 30 µM. Also, the figures for the MIC (against Staphylococcus aureus; in assay [7]) were above 60 µM and 15 µM, respectively.
For `CC(C)C[C@H](NC(=O)[C@H](CS)NC(=O)[C@H](CCCCN)NC(=O)[C@H](C)NC(=O)[C@H](C)N)C(=O)N[C@H](C(=O)N[C@@H](CCC(N)=O)C(=O)N[C@@H](CCCN=C(N)N)C(=O)N[C@@H](CCCN=C(N)N)C(=O)N[C@@H](CCCN=C(N)N)C(N)=O)C(C)C` [AAKCLVQRRR], the MIC amounted to 15 µM (≈ 18 µg/mL) in assay [1]; 30 µM (≈ 36 µg/mL) in the assay with Enterococcus faecalis VR; 30 µM (≈ 36 µg/mL) with Enterococcus faecalis; 30 µM (≈ 36 µg/mL) against Enterococcus faecium VR; 30 µM (≈ 36 µg/mL) against Enterococcus faecium; 30 µM (≈ 36 µg/mL) in assay [2]. Also, the MIC in assay [3] is 7.5 µM (≈ 9 µg/mL); in assay [4], 7.5 µM (≈ 9 µg/mL); in assay [6] it was 15 µM (≈ 18 µg/mL); with Staphylococcus aureus MR it was 15 µM (≈ 18 µg/mL); in assay [7], 7.5 µM (≈ 9 µg/mL).
`CC(C)C[C@H](NC(=O)[C@H](CCCN=C(N)N)NC(=O)[C@H](CC(C)C)NC(=O)[C@H](CC(C)C)NC(=O)[C@H](CC(C)C)NC(=O)[C@H](CCCCN)NC(=O)[C@H](CC(C)C)NC(=O)[C@@H](N)CCCN=C(N)N)C(=O)N[C@@H](CCCCN)C(N)=O` [RLKLLLRLK]: the minimal inhibitory concentration (MIC) worked out at 26 µM (≈ 30 µg/mL) in assay [8], 1.74 µM (≈ 2 µg/mL) in [5] and 30.4 µM (≈ 35 µg/mL) in assay [9].
In the case of `CC(C)C[C@H](NC(=O)[C@H](CCCN=C(N)N)NC(=O)[C@H](CC(C)C)NC(=O)[C@H](CC(C)C)NC(=O)[C@H](CC(C)C)NC(=O)[C@H](CC(C)C)NC(=O)[C@H](CC(C)C)NC(=O)[C@H](CCCCN)NC(=O)[C@H](CC(C)C)NC(=O)[C@@H](N)CCCN=C(N)N)C(=O)N[C@@H](CCCCN)C(N)=O` [RLKLLLLLRLK], the MIC was found to be 14.5 µM (≈ 20 µg/mL) in assay [8], 0.725 µM (≈ 0.999 µg/mL) in [5] and 21.8 µM (≈ 30 µg/mL) in assay [9].
Turning to `CC[C@H](C)[C@H](NC(=O)[C@H](CCC(=O)O)NC(=O)[C@H](CC(N)=O)NC(=O)[C@H](CCCCN)NC(=O)[C@H](CC(C)C)NC(=O)[C@H](Cc1ccc(O)cc1)NC(=O)[C@H](CCC(N)=O)NC(=O)[C@H](CCCN=C(N)N)NC(=O)[C@@H](NC(=O)[C@@H](NC(=O)[C@H](CCC(=O)O)NC(=O)[C@H](CCCCN)NC(=O)CNC(=O)[C@H](C)N)[C@@H](C)O)[C@@H](C)CC)C(=O)N[C@@H](CCCCN)C(=O)N[C@@H](CCCCN)C(=O)N[C@@H](CCCCN)C(=O)NCC(=O)N[C@@H](CCCN=C(N)N)C(=O)N[C@@H](CCCCN)C(=O)N[C@@H](C)C(=O)N[C@H](C(=O)N[C@H](C(=O)N[C@@H](C)C(=O)N[C@@H](Cc1c[nH]c2ccccc12)C(=O)O)[C@@H](C)CC)C(C)C` [AGKETIRQYLKNEIKKKGRKAVIAW], the minimal inhibitory concentration (MIC) in assay [10] was 21.8 µM (≈ 64 µg/mL); in [11] it was 10.9 µM (≈ 32 µg/mL); in assay [12], at least 43.7 µM; in assay [13], at least 43.7 µM; in assay [14] it was at least 43.7 µM; in assay [15] it was 21.8 µM (≈ 64 µg/mL). Also, the minimal inhibitory concentration (MIC) is at least 43.7 µM in the assay on Klebsiella pneumoniae M6; at least 43.7 µM in [16]; at least 43.7 µM in assay [17]; above 43.7 µM in assay [18]; 5.46 µM (≈ 16 µg/mL) in [19]; at least 43.7 µM against Staphylococcus aureus 15. Moreover, the minimum inhibitory concentration (MIC) is at least 43.7 µM in assay [20] and 1.37 µM (≈ 4 µg/mL) in assay [21].
Turning to `CC[C@H](C)[C@H](NC(=O)CNC(=O)CN)C(=O)N[C@@H](CC(C)C)C(=O)N[C@H](C(=O)N[C@@H](C)C(=O)N[C@@H](CCCCN)C(=O)N[C@@H](CC(C)C)C(=O)N[C@H](C(=O)N[C@H](C(=O)N[C@H](C(=O)N[C@@H](CC(C)C)C(=O)NCC(=O)N1CCC[C@H]1C(=O)N[C@@H](C)C(=O)N[C@@H](CC(C)C)C(=O)N[C@H](C(=O)N[C@@H](CO)C(=O)N[C@@H](Cc1c[nH]c2ccccc12)C(=O)N[C@H](C(=O)N[C@@H](CCCCN)C(=O)N[C@@H](CCCN=C(N)N)C(=O)N[C@@H](CCCCN)C(=O)N[C@@H](CCCN=C(N)N)C(=O)N[C@@H](CCC(N)=O)C(=O)N[C@@H](CCC(N)=O)C(N)=O)[C@@H](C)CC)[C@@H](C)CC)[C@@H](C)O)[C@@H](C)O)C(C)C)C(C)C` [GGILVAKLVTTLGPALISWIKRKRQQ], the minimal inhibitory concentration (MIC) was determined as 5.8 µM (≈ 16.5 µg/mL) in assay [22], 4.7 µM (≈ 13.4 µg/mL) in assay [23], 4.8 µM (≈ 13.7 µg/mL) in assay [24] and 5 µM (≈ 14.2 µg/mL) in assay [25].
On to `CC[C@H](C)[C@H](NC(=O)[C@H](CCC(=O)O)NC(=O)[C@H](CC(N)=O)NC(=O)[C@H](CCCCN)NC(=O)[C@H](CC(C)C)NC(=O)[C@H](CCCCN)NC(=O)[C@H](CCCCN)NC(=O)[C@H](CCCN=C(N)N)NC(=O)[C@@H](NC(=O)[C@H](CCCCN)NC(=O)[C@H](CCC(=O)O)NC(=O)[C@H](CCCCN)NC(=O)CNC(=O)[C@H](C)N)[C@@H](C)CC)C(=O)N[C@@H](CCCCN)C(=O)N[C@@H](CCCCN)C(=O)N[C@@H](CCCCN)C(=O)NCC(=O)N[C@@H](CCCN=C(N)N)C(=O)N[C@@H](CCCCN)C(=O)N[C@@H](C)C(=O)N[C@H](C(=O)N[C@H](C(=O)N[C@@H](C)C(=O)N[C@@H](Cc1c[nH]c2ccccc12)C(=O)O)[C@@H](C)CC)C(C)C` [AGKEKIRKKLKNEIKKKGRKAVIAW], for which the MIC is 21.9 µM (≈ 64 µg/mL) in assay [10]; 21.9 µM (≈ 64 µg/mL) in [11]; at least 43.8 µM in [12]; at least 43.8 µM in [13]; at least 43.8 µM in [14]; 11 µM (≈ 32 µg/mL) in [15]. Also, the MIC was at least 43.8 µM against Klebsiella pneumoniae M6; at least 43.8 µM in assay [16]; at least 43.8 µM in assay [17]; above 43.8 µM in assay [18]; 1.37 µM (≈ 4 µg/mL) in [19]; at least 43.8 µM in the assay with Staphylococcus aureus 15. The MIC is at least 43.8 µM in assay [20] and 0.342 µM (≈ 1 µg/mL) in [21].
For the compound `CC[C@H](C)[C@H](NC(=O)[C@H](C)NC(=O)[C@H](CC(C)C)NC(=O)[C@H](CS)NC(=O)[C@H](Cc1cnc[nH]1)NC(=O)[C@H](C)NC(=O)[C@H](C)N)C(=O)NCC(=O)N[C@@H](CCCN=C(N)N)C(=O)N[C@@H](CCCCN)C(N)=O` [AAHCLAIGRK], the MIC in assay [1] worked out at 7.5 µM; against Enterococcus faecalis VR it was 30 µM; against Enterococcus faecalis, 15 µM; against Enterococcus faecium VR, 3.8 µM; in the assay on Enterococcus faecium it was 7.5 µM; in assay [2] it was 7.5 µM. Also, the minimal inhibitory concentration (MIC) (in assay [3]; in [4]; in assay [6]; in the assay on Staphylococcus aureus MR; in assay [7]) was 7.5 µM in each case.
